Here are results for 13 compounds from PubChem BioAssay AID192 (DTP/NCI, 2004).

The subject of this assay is BDF1 mice, B16 melanoma ip, median survival T/C. The assay is described as follows: NCI In Vivo Anticancer Drug Screen. Data for tumor model B16 Melanoma (intraperitoneal) in B6D2F1 (BDF1) mice. To be noted: endpoint: median survival time, higher = longer survival. The method in brief: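 In this screen, activity was judged from survival or tumor size in treated versus vehicle-treated tumor-bearing mice, reported as T/C.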

[1] abbreviates: dose: 50.0 mg/kg/injection, schedule: Q01DX009 (ip), vehicle: saline with Tween-80.
Setting [2] is: dose: 100.0 mg/kg/injection, schedule: Q01DX009 (ip), vehicle: saline with Tween-80.
Where [3] appears, read: dose: 200.0 mg/kg/injection, schedule: Q01DX009 (ip), vehicle: saline with Tween-80.
The mark [4] stands for this setting: dose: 50.0 mg/kg/injection, schedule: Q01DX009 (ip), vehicle: Klucel (hydroxypropylcellulose) (HPC).
[5] abbreviates: dose: 100.0 mg/kg/injection, schedule: Q01DX009 (ip), vehicle: Klucel (hydroxypropylcellulose) (HPC).
The mark [6] stands for this setting: dose: 200.0 mg/kg/injection, schedule: Q01DX009 (ip), vehicle: Klucel (hydroxypropylcellulose) (HPC).
[7] abbreviates: dose: 200.0 mg/kg/injection, schedule: Q04DX003 (ip), vehicle: Klucel (hydroxypropylcellulose) (HPC).
Setting [8] is: dose: 400.0 mg/kg/injection, schedule: Q01DX009 (ip), vehicle: Klucel (hydroxypropylcellulose) (HPC).
Where [9] appears, read: dose: 400.0 mg/kg/injection, schedule: Q04DX003 (ip), vehicle: Klucel (hydroxypropylcellulose) (HPC).
Where [10] appears, read: dose: 100.0 mg/kg/injection, schedule: Q01DX009 (ip), vehicle: saline.
[11] abbreviates: dose: 200.0 mg/kg/injection, schedule: Q01DX009 (ip), vehicle: saline.

SMILES strings stand for the structures. Where “and” joins values, the source holds several entries; their conditions need not be identical. Equal values may be shown once. Inconclusive results and toxic doses are left out.

As to `O=c1[nH]cc(N(CCCl)CCCl)c(=O)[nH]1`, the T/C (dose: 0.05 mg/kg/injection, schedule: Q01DX009 (ip), vehicle: saline with Tween-80) was 95 % of control; the T/C (dose: 0.08 mg/kg/injection, schedule: Q01DX009 (ip), vehicle: saline with Tween-80) is 105 % of control; the T/C (dose: 0.14 mg/kg/injection, schedule: Q01DX009 (ip), vehicle: saline with Tween-80) is 112 % of control; the T/C (dose: 0.19 mg/kg/injection, schedule: Q01DX009 (ip), vehicle: saline) was 107 % of control; the T/C (dose: 0.65 mg/kg/injection, schedule: Q01DX009 (ip), vehicle: saline with Tween-80) was 170 % of control; the T/C (dose: 1.1 mg/kg/injection, schedule: Q01DX009 (ip), vehicle: saline with Tween-80) is 205 % of control. Moreover, the T/C (dose: 1.5 mg/kg/injection, schedule: Q01DX009 (ip), vehicle: saline) is 185 % of control.
Turning to `NC(Cc1cc([N+](=O)[O-])ccc1CN(CCCl)CCCl)C(=O)O` (stereo unspecified), the T/C was 178 % of control (dose: 1.0 mg/kg/injection, schedule: Q01DX009 (ip), vehicle: Klucel (hydroxypropylcellulose) (HPC)); 158 % of control (dose: 1.88 mg/kg/injection, schedule: Q04DX003 (ip), vehicle: Klucel (hydroxypropylcellulose) (HPC)); 193 % of control (dose: 2.0 mg/kg/injection, schedule: Q01DX009 (ip), vehicle: Klucel (hydroxypropylcellulose) (HPC)); 164 % of control (dose: 3.12 mg/kg/injection, schedule: Q01DX001 (ip), vehicle: Klucel (hydroxypropylcellulose) (HPC)); 173 % of control (dose: 3.78 mg/kg/injection, schedule: Q04DX003 (ip), vehicle: Klucel (hydroxypropylcellulose) (HPC)); 240 % of control (dose: 4.0 mg/kg/injection, schedule: Q01DX009 (ip), vehicle: Klucel (hydroxypropylcellulose) (HPC)). Also, the T/C by setting is: (dose: 6.25 mg/kg/injection, schedule: Q01DX001 (ip), vehicle: Klucel (hydroxypropylcellulose) (HPC)) 170 % of control; (dose: 7.5 mg/kg/injection, schedule: Q04DX003 (ip), vehicle: Klucel (hydroxypropylcellulose) (HPC)) 185 % of control; (dose: 8.0 mg/kg/injection, schedule: Q01DX009 (ip), vehicle: Klucel (hydroxypropylcellulose) (HPC)) 261 % of control; (dose: 12.5 mg/kg/injection, schedule: Q01DX001 (ip), vehicle: Klucel (hydroxypropylcellulose) (HPC)) 186 % of control; (dose: 15.0 mg/kg/injection, schedule: Q04DX003 (ip), vehicle: Klucel (hydroxypropylcellulose) (HPC)) 164 % of control.
Consider `CCc1ccc(C(=O)CCCCl)cc1`, for which the T/C under setting [1] was 102 % of control, the T/C under setting [2] is 100 % of control and the T/C under setting [3] was 109 % of control.
Take `CN(C)C(=S)S`: the T/C was 118 % of control (dose: 25.0 mg/kg/injection, schedule: Q01DX009 (ip), vehicle: Klucel (hydroxypropylcellulose) (HPC)); 100 % of control (dose: 25.0 mg/kg/injection, schedule: Q04DX003 (ip), vehicle: Klucel (hydroxypropylcellulose) (HPC)); 103 % of control under setting [4]; 89 % of control under setting [1]; 105 % of control (dose: 50.0 mg/kg/injection, schedule: Q04DX003 (ip), vehicle: Klucel (hydroxypropylcellulose) (HPC)); 91 % of control under setting [5]. Also, the T/C is, setting by setting: under setting [2], 105 % of control; (dose: 100.0 mg/kg/injection, schedule: Q04DX003 (ip), vehicle: Klucel (hydroxypropylcellulose) (HPC)) 94 % of control; under setting [6], 116 % of control; under setting [3], 98 % of control; under setting [7], 94 % of control; under setting [8], 98 % of control. Moreover, the T/C (dose: 400.0 mg/kg/injection, schedule: Q01DX009 (ip), vehicle: saline with Tween-80) is 89 % of control and the T/C under setting [9] was 97 % of control.
Consider `COC(=O)[C@H]1[C@H]2C[C@@H]3c4[nH]c5ccccc5c4CCN3C[C@H]2C[C@@H](OC(=O)c2cc(OC)c(OC)c(OC)c2)[C@@H]1OC`, for which the T/C is, setting by setting: (dose: 3.0 micrograms/kg/injection, schedule: Q01DX009 (ip), vehicle: saline) 90 % of control; (dose: 6.0 micrograms/kg/injection, schedule: Q01DX009 (ip), vehicle: saline) 98 % of control; (dose: 13.0 micrograms/kg/injection, schedule: Q01DX009 (ip), vehicle: saline) 95 % of control; (dose: 27.0 micrograms/kg/injection, schedule: Q01DX009 (ip), vehicle: saline) 95 % of control; (dose: 55.0 micrograms/kg/injection, schedule: Q01DX009 (ip), vehicle: saline) 86 % of control.
As to `NC(=O)NC(=O)c1cccc([N+](=O)[O-])c1`, the T/C was 104 % of control under setting [1], 102 % of control under setting [2] and 102 % of control under setting [3].
In the case of `O=[N+]([O-])/C=C/c1ccc2ccccc2c1`, the T/C reads like this: under setting [4], 95 % of control; under setting [5], 107 % of control.
With `O=C(NO)N/N=C/c1ccccc1`, the T/C runs as follows: (dose: 100.0 mg/kg/injection, schedule: Q04DX003 (ip), vehicle: saline with Tween-80) 106 % of control; (dose: 200.0 mg/kg/injection, schedule: Q04DX003 (ip), vehicle: saline with Tween-80) 104 % of control; (dose: 400.0 mg/kg/injection, schedule: Q04DX003 (ip), vehicle: saline with Tween-80) 90 % of control.
Regarding `COC(=O)/C=C/c1ccc(OC)cc1`, the T/C is, setting by setting: under setting [5], 97 % of control; under setting [6], 97 % of control; under setting [7], 86 % of control; under setting [8], 97 % of control; under setting [9], 100 % of control.
Turning to `O=C(Nc1ccccc1C(F)(F)F)c1cccc(C(=O)Nc2ccccc2C(F)(F)F)c1`, the T/C is 100 % of control (dose: 100.0 mg/kg/injection, schedule: Q04DX003 (ip), vehicle: carboxymethylcellulose (CMC)) and 91 % of control (dose: 200.0 mg/kg/injection, schedule: Q04DX003 (ip), vehicle: carboxymethylcellulose (CMC)).
As for `O=C1C=CC(=O)N1Cc1ccco1`, the T/C by setting is: (dose: 65.0 mg/kg/injection, schedule: Q01DX009 (ip), vehicle: saline) 108 % of control; under setting [10], 103 % of control and 117 % of control; (dose: 150.0 mg/kg/injection, schedule: Q01DX009 (ip), vehicle: saline) 114 % of control and 117 % of control; under setting [11], 113 % of control; (dose: 400.0 mg/kg/injection, schedule: Q01DX009 (ip), vehicle: saline) 113 % of control.
Regarding `COc1ccc(NC(=O)Nc2ccc(Br)cc2)cc1`, the T/C is 98 % of control (dose: 25.0 mg/kg/injection, schedule: Q01DX009 (ip), vehicle: saline with Tween-80); 92 % of control under setting [1]; 89 % of control and 95 % of control under setting [2].
For `OC(CBr)C(O)C(O)C(O)CBr` (stereo unspecified), the T/C is 110 % of control (dose: 12.5 mg/kg/injection, schedule: Q01DX009 (ip), vehicle: saline); 107 % of control (dose: 20.0 mg/kg/injection, schedule: Q01DX009 (ip), vehicle: saline with Tween-80); 107 % of control (dose: 25.0 mg/kg/injection, schedule: Q01DX009 (ip), vehicle: saline); 109 % of control (dose: 25.9 mg/kg/injection, schedule: Q01DX009 (ip), vehicle: saline with Tween-80); 100 % of control (dose: 40.0 mg/kg/injection, schedule: Q01DX009 (ip), vehicle: saline with Tween-80); 105 % of control (dose: 43.2 mg/kg/injection, schedule: Q01DX009 (ip), vehicle: saline with Tween-80). For the same compound, the T/C runs as follows: (dose: 50.0 mg/kg/injection, schedule: Q01DX009 (ip), vehicle: saline) 120 % of control and 107 % of control; (dose: 72.0 mg/kg/injection, schedule: Q01DX009 (ip), vehicle: saline with Tween-80) 116 % of control; (dose: 80.0 mg/kg/injection, schedule: Q01DX009 (ip), vehicle: saline with Tween-80) 108 % of control; under setting [2], 103 % of control and 120 % of control; under setting [10], 107 % of control; (dose: 120.0 mg/kg/injection, schedule: Q01DX009 (ip), vehicle: saline with Tween-80) 101 % of control. Besides, the T/C was 115 % of control (dose: 160.0 mg/kg/injection, schedule: Q01DX009 (ip), vehicle: saline with Tween-80); 113 % of control and 114 % of control under setting [3]; 117 % of control and 110 % of control under setting [11]; 82 % of control (dose: 300.0 mg/kg/injection, schedule: Q01DX009 (ip), vehicle: saline with Tween-80); 55 % of control (dose: 555.8 mg/kg/injection, schedule: Q01DX009 (ip), vehicle: saline with Tween-80); 112 % of control (dose: 800.0 mg/kg/injection, schedule: Q01DX009 (ip), vehicle: saline with Tween-80).
